test system: Gaeumannomyces graminis; assay: Gaeumannomyces graminis / liquid culture (take-all of cereals); assay type: cell-based; settings: PDB potato dextrose broth, 24° C., 4-5 days after application, read-out: disease control (inhibition of growth determined photometrically)
Outline: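 Cryo-stored mycelial fragments in potato dextrose broth exposed to compound in DMSO at 200 ppm. Incubated at 24 °C; growth inhibition read photometrically 4–5 days after application.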

SMILES	inhibition at 200 ppm [%]
O=C(OCCc1c(Cl)cccc1Cl)c1ccc2c(c1)B(O)OC2 [Compound 373]	≥ 80
CCC#CCOC(=O)c1cc2c(cc1F)COB2O [Compound 379]	≥ 80
C=CCC(OC(=O)c1cc2c(cc1F)COB2O)C(=O)OC (stereo not drawn) [Compound 410]	≥ 80
O=C(OCC#Cc1ccccc1)c1cc2c(cc1F)COB2O [Compound 422]	≥ 80
O=C(OCc1cccc(F)c1)c1cc2c(cc1F)COB2O [Compound 434]	≥ 80

test system: Thanatephorus cucumeris (Rhizoctonia solani); assay: Thanatephorus cucumeris (Rhizoctonia solani) / liquid culture (foot rot, damping-off); assay type: cell-based; settings: PDB potato dextrose broth, 24° C., 3-4 days after application, read-out: disease control (inhibition of growth determined photometrically)
Outline: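 Mycelial fragments from fresh liquid culture were suspended in potato dextrose broth and added to compound in DMSO at 200 ppm. After 3-4 days at 24 °C, growth inhibition was measured photometrically.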

SMILES	inhibition at 200 ppm [%]
CCC#CCOC(=O)c1cc2c(cc1F)COB2O [Compound 379]	≥ 80
C=CCC(OC(=O)c1cc2c(cc1F)COB2O)C(=O)OC (stereo not drawn) [Compound 410]	≥ 80
O=C(OCC#Cc1ccccc1)c1cc2c(cc1F)COB2O [Compound 422]	≥ 80
O=C(OCc1cccc(F)c1)c1cc2c(cc1F)COB2O [Compound 434]	≥ 80

test system: Sclerotinia sclerotiorum; assay: Sclerotinia sclerotiorum / liquid culture (cottony rot); assay type: cell-based; settings: PDB potato dextrose broth, 24° C., 3-4 days after application, read-out: disease control (inhibition of growth determined visually)
Procedure: 18. Sclerotinia sclerotiorum/Liquid Culture (Cottony Rot): Mycelia fragments of a newly grown liquid culture of the fungus were directly mixed into nutrient broth (PDB potato dextrose broth). After placing a (DMSO) solution of the test compounds into a microtiter plate (96-well format) the nutrient broth containing the fungal material was added. The test plates were incubated at 24° C. and the inhibition of growth was determined visually 3-4 days after application.

SMILES	inhibition at 200 ppm [%]
CCC#CCOC(=O)c1cc2c(cc1F)COB2O [Compound 379]	≥ 80
C=CCC(OC(=O)c1cc2c(cc1F)COB2O)C(=O)OC (stereo not drawn) [Compound 410]	≥ 80

test system: Fusarium culmorum; assay: microbe, parasite or virus in culture; assay type: cell-based; settings: read-out: disease control (inhibition of growth determined visually)

SMILES	inhibition at 200 ppm [%]
O=C(OCCc1c(Cl)cccc1Cl)c1ccc2c(c1)B(O)OC2 [Compound 373]	≥ 80
CCC#CCOC(=O)c1cc2c(cc1F)COB2O [Compound 379]	≥ 80
O=C(OCC#Cc1ccccc1)c1cc2c(cc1F)COB2O [Compound 422]	≥ 80

test system: Monographella nivalis (Microdochium nivale); assay: Monographella nivalis (Microdochium nivale) / liquid culture (foot rot cereals); assay type: cell-based; settings: PDB potato dextrose broth, 24° C., 4-5 days after application, read-out: disease control (inhibition of growth determined photometrically)

SMILES	inhibition at 200 ppm [%]
O=C(OCCc1c(Cl)cccc1Cl)c1ccc2c(c1)B(O)OC2 [Compound 373]	≥ 80
CCC#CCOC(=O)c1cc2c(cc1F)COB2O [Compound 379]	≥ 80
C=CCC(OC(=O)c1cc2c(cc1F)COB2O)C(=O)OC (stereo not drawn) [Compound 410]	≥ 80
O=C(OCC#Cc1ccccc1)c1cc2c(cc1F)COB2O [Compound 422]	≥ 80
O=C(OCc1cccc(F)c1)c1cc2c(cc1F)COB2O [Compound 434]	≥ 80

test system: Mycosphaerella arachidis (Cercospora arachidicola); assay: Mycosphaerella arachidis (Cercospora arachidicola) / liquid culture (early leaf spot); assay type: cell-based; settings: PDB potato dextrose broth, 24° C., 4-5 days after application, read-out: disease control (inhibition of growth determined photometrically)
Outline: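 Conidia from cryogenic storage mixed into potato dextrose broth and added to compound at 200 ppm in DMSO. Incubation at 24° C.; growth inhibition read photometrically 4-5 days after application.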

SMILES	inhibition at 200 ppm [%]
CCC#CCOC(=O)c1cc2c(cc1F)COB2O [Compound 379]	≥ 80
O=C(OCC#Cc1ccccc1)c1cc2c(cc1F)COB2O [Compound 422]	≥ 80
O=C(OCc1cccc(F)c1)c1cc2c(cc1F)COB2O [Compound 434]	≥ 80

test system: Glomerella lagenarium (Colletotrichum lagenarium); assay: Glomerella lagenarium (Colletotrichum lagenarium) / liquid culture (anthracnose); assay type: cell-based; settings: Colletotrichum orbiculare, PDB potato dextrose broth, 24° C., 3-4 days after application, read-out: disease control (inhibition of growth measured photometrically)
Outline: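 Conidia of G. lagenarium from cryogenic storage were suspended in potato dextrose broth and added to test compound in DMSO at 200 ppm. Plates were incubated at 24° C, and growth inhibition was read photometrically 3-4 days after application.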

SMILES	inhibition at 200 ppm [%]
CCC#CCOC(=O)c1cc2c(cc1F)COB2O [Compound 379]	≥ 80
O=C(OCc1cccc(F)c1)c1cc2c(cc1F)COB2O [Compound 434]	≥ 80

test system: Plasmopara viticola; assay: whole plant or invertebrate; assay type: in vivo; settings: foliar, read-out: disease control

SMILES	pest or weed control at 200 ppm [%]
O=C(OCCc1c(Cl)cccc1Cl)c1ccc2c(c1)B(O)OC2 [Compound 373]	≥ 80
CCC#CCOC(=O)c1cc2c(cc1F)COB2O [Compound 379]	≥ 80
C=CCC(OC(=O)c1cc2c(cc1F)COB2O)C(=O)OC (stereo not drawn) [Compound 410]	≥ 80
O=C(OCc1cccc(F)c1)c1cc2c(cc1F)COB2O [Compound 434]	≥ 80

test system: Botryotinia fuckeliana (Botrytis cinerea); assay: Botryotinia fuckeliana (Botrytis cinerea) / liquid culture (gray mould); assay type: cell-based; settings: Vogels broth, 24° C., 3-4 days after application, read-out: disease control (inhibition of growth determined photometrically)
Procedure: 10. Botryotinia fuckeliana (Botrytis cinerea)/Liquid Culture (Gray Mould): Conidia of the fungus from cryogenic storage were directly mixed into nutrient broth (Vogels broth). After placing a DMSO solution of test compound into a 96-well microtiter plate at an application rate of 200 ppm, the nutrient broth containing the fungal spores was added. The test plates were incubated at 24° C. and the inhibition of growth was determined photometrically 3-4 days after application.

SMILES	inhibition at 200 ppm [%]
O=C(OCCc1c(Cl)cccc1Cl)c1ccc2c(c1)B(O)OC2 [Compound 373]	≥ 80
O=C(OCC#Cc1ccccc1)c1cc2c(cc1F)COB2O [Compound 422]	≥ 80
O=C(OCc1cccc(F)c1)c1cc2c(cc1F)COB2O [Compound 434]	≥ 80

test system: Pythium ultimum; assay: Pythium ultimum / liquid culture (seedling damping off); assay type: cell-based; settings: Globisporangium ultimum; 200 ppm; potato dextrose broth, 24° C., 2-3 days after application; read-out: disease control (inhibition of growth determined photometrically)

SMILES	inhibition at 200 ppm [%]
CCC#CCOC(=O)c1cc2c(cc1F)COB2O [Compound 379]	≥ 80
C=CCC(OC(=O)c1cc2c(cc1F)COB2O)C(=O)OC (stereo not drawn) [Compound 410]	≥ 80
O=C(OCC#Cc1ccccc1)c1cc2c(cc1F)COB2O [Compound 422]	≥ 80
O=C(OCc1cccc(F)c1)c1cc2c(cc1F)COB2O [Compound 434]	≥ 80

test system: Mycosphaerella graminicola (Septoria tritici); assay: Mycosphaerella graminicola (Septoria tritici) / liquid culture (Septoria blotch); assay type: cell-based; settings: Zymoseptoria tritici, PDB potato dextrose broth, 24° C., 4-5 days after application, read-out: disease control (inhibition of growth determined photometrically)
Outline: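 Conidia from cryostorage were suspended in potato dextrose broth and added to test compound in DMSO at 200 ppm in microtiter wells. Plates were incubated at 24° C and growth inhibition measured photometrically 4-5 days after application.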

SMILES	inhibition at 200 ppm [%]
O=C(OCCc1c(Cl)cccc1Cl)c1ccc2c(c1)B(O)OC2 [Compound 373]	≥ 80
CCC#CCOC(=O)c1cc2c(cc1F)COB2O [Compound 379]	≥ 80
O=C(OCC#Cc1ccccc1)c1cc2c(cc1F)COB2O [Compound 422]	≥ 80
O=C(OCc1cccc(F)c1)c1cc2c(cc1F)COB2O [Compound 434]	≥ 80

— patent US20170000133A1, “BENZOXABOROLE FUNGICIDES” (SYNGENTA PARTICIPATIONS AG, priority 2013, published 2017)
